Test results published in BindingDB's records for doi:10.1021/jm00168a028 (University of Minnesota, 1990).
Where a SMILES comes first, the peptide text is derived from it. [ ]: non-standard residue; d: D form. The star is where a group is joined. Tyr(Nα,Nα-allyl2) = C=CCN(CC=C)[C@@H](Cc1ccc(O)cc1)C(=O)*; Aib = CC(C)(N)C(=O)O

Assays:
[1] = Binding affinity was measured by the displacement of [3H]- DADLE in guinea pig brain membrane of Opioid receptor delta 1
[2] = Binding affinity was measured by the displacement of [3H]- DADLE in guinea pig brain membrane of opioid receptor delta
[3] = Binding affinity was measured by the displacement of [3H]- DADLE in guinea pig brain membrane of Opioid receptor delta 1; remark: listed apart in the source

SMILES	Ki [1] [nM]	Ki [2] [nM]	Ki [3] [nM]
COc1ccc2c3c1O[C@H]1c4[nH]c5ccccc5c4C[C@@]4(O)[C@@H](C2)N(CC2CC2)CC[C@]314 [22-cyclopropylmethyl-16-methoxy-(2S,13R)-14-oxa-11,22-diazaheptacyclo[13.9.1.01,13.02,21.04,12.05,10.019,25]pentacosa-4(12),5(10),6,8,15(25),16,18-heptaen-2-ol(HCl1.5H2O)]	40	40	
CN1CC[C@]23c4c5ccc(O)c4O[C@H]2c2[nH]c4ccccc4c2C[C@@]3(O)[C@H]1C5	0.7		
C=CCN(CC=C)[C@@H](Cc1ccc(O)cc1)C(=O)NC(C)(C)C(=O)NC(C)(C)C(=O)N[C@@H](Cc1ccccc1)C(=O)N[C@@H](CC(C)C)C(=O)O [ICI-174864] ({Tyr(Nα,Nα-allyl2)}-[Aib][Aib]FL-OH)			35
